Source: the NIST ThermoML archive (doi:10.1016/j.fluid.2011.11.026)
± gives the expanded uncertainty stated by the source.

Conditions: Liquid, Closed cell (Static) method

COC [dimethyl ether]
vapor or sublimation pressure (296.78 K): 571.9 ± 1.2 kPa
vapor or sublimation pressure (303.46 K): 690.2 ± 1.3 kPa
vapor or sublimation pressure (308.54 K): 793.1 ± 1.5 kPa
vapor or sublimation pressure (312.26 K): 875.3 ± 1.7 kPa
vapor or sublimation pressure (317.17 K): 993.3 ± 1.8 kPa
vapor or sublimation pressure (322.08 K): 1122 ± 2.1 kPa
vapor or sublimation pressure (327.08 K): 1265.6 ± 2.3 kPa
vapor or sublimation pressure (332.09 K): 1423.5 ± 2.6 kPa
vapor or sublimation pressure (337 K): 1591.1 ± 2.9 kPa
vapor or sublimation pressure (341.97 K): 1773.8 ± 3.2 kPa
vapor or sublimation pressure (347 K): 1976.2 ± 3.5 kPa
vapor or sublimation pressure (351.89 K): 2187.4 ± 3.9 kPa
vapor or sublimation pressure (356.91 K): 2422.2 ± 4.2 kPa
vapor or sublimation pressure (361.94 K): 2675.2 ± 4.7 kPa
vapor or sublimation pressure (366.96 K): 2946.3 ± 5.1 kPa
vapor or sublimation pressure (371.84 K): 3230.3 ± 5.6 kPa
vapor or sublimation pressure (376.91 K): 3546.4 ± 6.1 kPa
vapor or sublimation pressure (379.82 K): 3739 ± 6.4 kPa
vapor or sublimation pressure (382.88 K): 3950.3 ± 6.8 kPa
vapor or sublimation pressure (385.83 K): 4161.9 ± 7.1 kPa
vapor or sublimation pressure (387.81 K): 4309.6 ± 7.4 kPa
vapor or sublimation pressure (389.81 K): 4463.7 ± 7.6 kPa
vapor or sublimation pressure (391.86 K): 4625.6 ± 7.9 kPa
vapor or sublimation pressure (393.81 K): 4783 ± 8.1 kPa
vapor or sublimation pressure (395.74 K): 4943.6 ± 8.4 kPa

FC(F)(F)C(F)(F)C(F)(F)C(F)(F)F [decafluorobutane]
vapor or sublimation pressure (263.15 K): 72.7 ± 0.5 kPa
vapor or sublimation pressure (268.12 K): 89.6 ± 0.5 kPa
vapor or sublimation pressure (273.09 K): 109.4 ± 0.5 kPa
vapor or sublimation pressure (278 K): 132.4 ± 0.6 kPa
vapor or sublimation pressure (282.99 K): 159 ± 0.6 kPa
vapor or sublimation pressure (287.91 K): 189.3 ± 0.7 kPa
vapor or sublimation pressure (292.97 K): 225.4 ± 0.8 kPa
vapor or sublimation pressure (297.95 K): 265.3 ± 0.8 kPa
vapor or sublimation pressure (302.9 K): 310.2 ± 0.9 kPa
vapor or sublimation pressure (308.21 K): 364.3 ± 1.1 kPa
vapor or sublimation pressure (312.88 K): 417.8 ± 1.2 kPa
vapor or sublimation pressure (317.88 K): 481.2 ± 1.4 kPa
vapor or sublimation pressure (323.22 K): 556.4 ± 1.5 kPa
vapor or sublimation pressure (328.15 K): 633.7 ± 1.7 kPa
vapor or sublimation pressure (332.91 K): 716.1 ± 2 kPa
vapor or sublimation pressure (337.93 K): 811 ± 2.2 kPa
vapor or sublimation pressure (342.91 K): 913 ± 2.5 kPa
vapor or sublimation pressure (347.93 K): 1025.8 ± 2.8 kPa
vapor or sublimation pressure (352.92 K): 1149.2 ± 3.1 kPa
vapor or sublimation pressure (357.1 K): 1261.3 ± 3.4 kPa
vapor or sublimation pressure (363.13 K): 1437.8 ± 3.8 kPa
vapor or sublimation pressure (368.03 K): 1594.1 ± 4.3 kPa
vapor or sublimation pressure (373.25 K): 1775.9 ± 4.7 kPa
vapor or sublimation pressure (376.88 K): 1912.1 ± 5.1 kPa
vapor or sublimation pressure (379.05 K): 1997.7 ± 5.3 kPa
